Consider three compounds from ChEMBL document CHEMBL1131476, “Synthesis of a methylenebis(phosphonate) analogue of mycophenolic adenine dinucleotide: a glucuronidation-resistant MAD analogue of NAD” (J Med Chem, 1998).

The test system of one assay is K562. Kind of assay: Inhibitory activity against growth of human erythroleukemia […] cells. Type of assay: functional, cell-based.
In assay [1] the target is Inosine-5'-monophosphate dehydrogenase 1 (Homo sapiens, UniProt P20839). Kind of assay: Inhibitory activity against human Inosine-5'-monophosphate dehydrogenase 1 (IMPDH type I isoform); Range is 33-37 nM.
Chain of Inosine-5'-monophosphate dehydrogenase 1 (P20839 whole entry, canonical isoform): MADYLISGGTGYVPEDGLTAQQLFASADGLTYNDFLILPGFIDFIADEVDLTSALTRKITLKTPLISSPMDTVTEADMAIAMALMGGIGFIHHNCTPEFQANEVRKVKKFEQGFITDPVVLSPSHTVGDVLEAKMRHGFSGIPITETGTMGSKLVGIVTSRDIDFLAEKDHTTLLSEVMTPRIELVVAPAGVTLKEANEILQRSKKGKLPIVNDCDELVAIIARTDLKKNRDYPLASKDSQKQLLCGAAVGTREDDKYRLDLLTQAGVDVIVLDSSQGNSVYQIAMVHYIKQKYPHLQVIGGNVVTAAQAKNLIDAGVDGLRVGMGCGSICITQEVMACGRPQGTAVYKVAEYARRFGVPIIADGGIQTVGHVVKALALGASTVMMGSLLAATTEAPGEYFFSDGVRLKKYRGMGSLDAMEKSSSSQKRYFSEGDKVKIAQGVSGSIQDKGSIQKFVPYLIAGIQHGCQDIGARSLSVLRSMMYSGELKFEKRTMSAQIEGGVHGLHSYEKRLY
Assay [2] addresses Inosine-5'-monophosphate dehydrogenase 2 (Homo sapiens, UniProt P12268). The assay is described as follows: Inhibitory activity against human Inosine-5'-monophosphate dehydrogenase 2 (IMPDH type II isoform).

What is called IC50 is the concentration needed to halve the response being measured. Read a low IC50 as higher potency. A word on the Ki: it is a measure of affinity in units of concentration, obtained from inhibition or displacement. A high value points to a looser hold on the target. In the case of `COc1c(C)c2c(c(O)c1C/C=C(\C)CCC(=O)O)C(=O)OC2` [MYCOPHENOLIC ACID], half-maximal inhibition in the assay with K562 (IC50) was put at 80 nM. The same compound yielded a Ki in assay [1] of 33 nM.

The compound `COc1c(C)c2c(c(O)c1C/C=C(\C)CCCO)C(=O)OC2` registered an IC50 in the assay on K562 of 1500 nM. Compound `COc1c(C)c2c(c(O)c1C/C=C(\C)CCCOP(=O)(O)CP(=O)(O)OC[C@@H]1OC(n3cnc4c(N)ncnc43)[C@@H](O)[C@H]1O)C(=O)OC2` (stereo not given in full) displayed an IC50 with K562 of 1500 nM. The compound further showed a Ki in assay [2] of 300 nM.
